Laboratory results: patent publication US10849935B2, “Method to suppress the systemic toxicity of chemotherapeutic drugs” (United Arab Emirates University, priority 2013, dated 2020)
Several values for one entry are separate records, joined by “and”; a condition that tells them apart may be missing. Equal entries are not always repeated. Where two headings read alike, the source gives them in different places.

Experiments:
[1] = tested on: 4T1 metastatic breast cancer; assay: 4T1 metastatic breast adenocarcinoma model: growth and survival; format: in vivo, BALB/c mice
Procedure: Two different syngeneic tumor models were used in this study, namely, MC38 colorectal cancer and 4T1 metastatic breast adenocarcinoma.
For the 4T1 breast cancer cells, BALB/c mice were implanted orthotopically in the mammary fat pad with 1×10^6 cancer cells/mouse.
For the colon and breast cancer models, mice bearing tumors were treated with (1) saline (control), (2) manuka honey (50% w/v), (3) Oxaliplatin at 6 mg/kg or (4) manuka honey (50% w/v)+Oxaliplatin (6 mg/kg). The manuka honey (50% w/v) was given intravenously (i.v.) twice per week. Oxaliplatin 6 mg/kg was administered intraperitoneally (i.p.) once per week. The total treatment period was 3 weeks.

Bcl-2 in B16.F1 cells = assay: Western blot of Bcl-2 expression; format: cell-based, mouse; details: taxol 50 ng/ml
Procedure: (§1) FIGS. 4A-4C. Manuka honey induces late apoptotic events in cancer cells. FIG. 4A. B16.F1 cells were incubated for 24 hr or 72 hr in the absence or presence of Manuka honey (M; 5%) or taxol (T; 50 ng/ml). Whole cell extracts (100 μg/lane) were resolved on 10% SDS-PAGE followed by Western blotting with an antibody specific to Bcl-2. FIG. 4 B. Cells were treated for 24 hr or 72 hr with the indicated concentrations of manuka honey (0.6%-5.0%) or taxol (50 ng/ml). Whole cell extracts (100 μg/lane) were resolved on 10% SDS-PAGE followed by Western blotting with a PARP-specific antibody. The full-length (116 kD) and cleaved (89 kD) forms of PARP are indicated. The cell extracts were also probed with an antibody against β-actin as a control for loading. FIG. 4C. Following treatment for 72 hr, cells were lysed and DNA extracted by centrifugation and phenol-chloroform extraction. Extracted DNA was resolved on 1.5% agarose gel and stained with ethidium bromide to visualize the oligonucleosomal fragments. The results are representative of two independent experiments.
Bcl-2 is a member of a large family of cell survival-regulating proteins consisting of both proand anti-apoptotic regulators. […] Therefore the level of Bcl-2 expression in B16.F1 cells following treatment with manuka honey or taxol was determined.

[2] = tested on: caspase 3-positive (apoptotic) tumor cells; assay: Caspase 3 immunohistochemistry of tumor sections; format: in vivo; details: tumors of treated melanoma-bearing mice, mean±SEM
Procedure: Tumor tissue sections were prepared after treatment with saline (FIG. 11A), manuka honey (FIG. 11B), paclitaxel (FIG. 11C) or manuka honey+paclitaxel (FIG. 11D) and stained using caspase 3-specific antibody. Representative images at high magnification (bar=50 μm) are shown. Arrows indicate representative, brown-staining, apoptotic cells. Necrotic regions are also indicated (n). The results are representative of two independent experiments. (FIG. 11E) Quantitative estimation of the number of caspase-3 positive cells in tumor sections of different treatment groups. The data is shown as the mean±SEM of the number of positive cells per high power field. Tumors were obtained from 2-3 mice per treatment group and multiple sections were made from each tumor tissue. The number of positive cells was determined by counting the number of cells in 20 high power fields per section.
Tumor tissue sections were prepared from tumors obtained from animals treated with manuka honey, paclitaxel, manuka honey plus paclitaxel or saline as control. […] By counting the number of caspase 3-positive cells in a random selection of 10-20 high power fields (hpf), a quantitative estimate of apoptotic cell number could be achieved.

[3] = tested on: caspase 8 in B16.F1 melanoma cells; assay: Caspase 8 enzymatic activity in treated cells; format: cell-based, mouse; details: paclitaxel 10 ng/ml, 24 hr
Procedure: (§2) B16.F1 melanoma cells were treated with manuka honey (5% w/v), taxol (10 or 50 ng/ml) or medium as control. After 24 hr of culture, enzymatic activity of caspase 3/7 (FIG. 3A) and caspase 8 (FIG. 3B) were determined using specific kits and following manufacturer's recommendation. The data is presented as fold increase in caspase activity after normalization to the number of viable cells per culture. FIG. 3C. Western blot analysis of caspase-9 activation B16.F1 cells treated with manuka honey or taxol. […] Protein extracts were resolved on 10% SDS-PAGE and immunoblotted with caspase-9-specific ployclonal antibody capable of detecting both full length and cleaved forms of caspase-9. The cell extracts were also probed with an antibody against β-actin as a control for protein loading.
(§3) A critical component for the initiation of the apoptosis pathway is the sequential recruitment of a number of caspases leading to the activation of the effector caspase-3. This, in turn, leads to the cleavage of a number of vital cellular substrates required for cell viability. Next explored was the mechanism of apoptosis induction in manuka honey-treated cancer cells.

[4] = tested on: caspase-9 in B16.F1 cells; assay: Western blot of caspase-9 activation; format: cell-based, mouse; details: paclitaxel 10 ng/ml, 24 hr
Procedure: as §2

[5] = tested on: caspase 3/7 in B16.F1 melanoma cells; assay: Caspase 3/7 enzymatic activity in treated cells; format: cell-based, mouse; details: paclitaxel 10 ng/ml, 24 hr
Procedure: as §2, §3

[6] = tested on: glutathione (GSH) in liver, spleen and kidney; details: 2 injections per week for 3 weeks
Procedure: Animals were treated with saline, paclitaxel, manuka honey or manuka honey plus paclitaxel. At the end of a 3-week treatment, animals were sacrificed and organs removed for toxicity determination. The levels of glutathione (GSH) in the liver (FIG. 12A) spleen (FIG. 12B) and kidney (FIG. 12C) were determined. The data represent the mean±SEM of a minimum of 3 determinations per experimental group. For all panels, asterisks denote significant differences between the indicated groups (*, p<0.05; **, p<0.01; ***, p<0.001).
Groups of mice were injected with manuka honey, paclitaxel, manuka honey plus paclitaxel or saline for a total period of 3 weeks (2 injections per week). The animals were then sacrificed and their organs (liver, spleen, and kidney) obtained and analyzed for the levels of glutathione (GSH), a major antioxidant effector.

PARP in B16.F1 cells = assay: Western blot of PARP cleavage; format: cell-based, mouse; details: taxol 50 ng/ml, 24 hr
Procedure: as §1
One of the target proteins for active caspase-3 is the DNA repair enzyme poly(ADP-ribose) polymerase (or PARP). […]

B16.F1 melanoma cells = assay: Cell viability, CellTiter-Glo luminescent assay, B16.F1
Procedure: Skin cancer cells (B16.F1 cell line) (FIGS. 1A-1C), colon cancer cells (CT26 cell line) (FIGS. 1D, 1E) and breast cancer cells (MCF-7 cell line) (FIGS. 1F, 1G) were plated at 5×10^3 cells per well and incubated for 24 hr (FIGS. 1A, 1D, 1F), 48 hr (FIG. 1B) or 72 hr (FIGS. 1C, 1E, 1G) in the absence or presence of the indicated concentrations of manuka honey (range 0.3% to 5.0% w/v), or taxol (10 ng/ml or 50 ng/ml final concentration). At the end of the incubation period, cell viability was determined using CellTiter-Glo luminescent assay. Results are expressed as percentage viability in treated cell cultures compared to control, untreated, cells and are representative of 3 (for B16.F1 cells) or 2 (for CT26 and MCF-7 cells) independent experiments. Asterisks denote statistically significant differences in viability of experimental groups compared to control (*, p<0.05; **, p<0.01; ***, p<0.001).
The potential effect of manuka honey on cancer cell proliferation was investigated using three tumor cell lines differing in type and origin, the murine melanoma (B16.F1) and colon carcinoma (CT26) cells and the human breast cancer (MCF-7) cell line. Cells were incubated with different concentrations of manuka honey (range 0.3 to 2.5% w/v) for 24-72 hrs. As a positive control, cells were cultured with taxol at a final concentration of 10 or 50 ng/ml.

B16.F1 cells = assay: Annexin V-FITC / PI flow cytometry (apoptosis); format: cell-based, mouse; details: taxol 10 ng/ml, 24 hr
From the text: The results are representative of three independent experiments.

B16.F1 melanoma tumor = details: for inhibition of tumor growth vs saline control: day 18 post treatment
Procedure: The activity of manuka honey was evaluated in B16.F1 melanoma tumor model. Mice were divided in four groups and treated by intravenous administration (100-200 μl 2 times per week for up to 3 weeks) of manuka honey alone, at either 5%, 10% or 20% w/v, or saline as a control. Tumor volume and animal survival were followed for up to 3 weeks post treatment initiation.
The antitumor activity of manuka honey was evaluated in the syngeneic B16.F1 melanoma tumor model. C57BL/6 mice with established tumors (mean>50 mm3) were divided into four groups and treated by intravenous administration (2 times per week for up to 3 weeks) of manuka honey alone (50% w/v), taxol alone (10 mg/kg), manuka honey (50% w/v) plus taxol (10 mg/kg) or saline as a control. Tumor volume and animal survival were followed for up to 3 weeks post treatment initiation. […] The effect of the various treatments on animal survival was also followed (FIG. 8B).
C57BL/6 mice with established tumors (mean>50 mm^3) were divided into four groups and treated by intravenous administration (2 times per week for up to 3 weeks) of manuka honey alone (50% w/v), taxol alone (5 mg/kg), manuka honey (50% w/v) plus taxol (5 mg/kg) or saline as a control. Tumor volume and animal survival were followed for up to 3 weeks post treatment initiation.
In a further experiment the mice were divided into four groups and treated by intravenous administration (2 times per week for up to 3 weeks) of manuka honey alone (50% w/v), taxol alone (8 mg/kg), manuka honey (50% w/v) plus taxol (8 mg/kg) or saline as a control. Tumor volume and animal survival were followed for up to 3 weeks post treatment initiation.
One syngeneic tumor model was used in this study, namely the B16.F1 melanoma (skin cancer) model. […] The procedure for tumor implantation is briefly as follows, C57BL/6 (8-10 mice per group) were inoculated subcutaneously in the right flank with 2×10^5 B16.F1 melanoma cells and staged to day 12-14.
Tumor growth was followed by quantitative determination of tumor volume, measured as the product of the perpendicular diameters using digital calipers, according to the formula: volume=L×W^2/2. For the B16.F1 model, once tumors were established, mice were given intravenous (i.v.) doses (100 μl per injection) of (1) saline (control), (2) 50% (w/v) manuka honey (MH) suspension in sterile saline, (3) paclitaxel (at doses of 5 or 8 mg/kg body weight) or (4) MH (50% w/v)+paclitaxel. All treatments were routinely administered twice per week, using freshly prepared reagents. Tumor growth and animal survival were followed for the subsequent 50 days.

[7] = manuka honey 50% w/v, taxol 10 mg/kg, i.v. 2 times per week

O=C1[O][Pt]2([NH][C@@H]3CCCC[C@H]3[NH]2)[O]C1=O [Oxaliplatin]
effect on cancer growth and animal survival ([1]; Oxaliplatin 6 mg/kg, MH 50% w/v): only a marginal effect on cancer growth and animal survival
percentage survival ([1]; day 50, Oxaliplatin 6 mg/kg i.p. once per week, manuka honey 50% w/v i.v. twice per week, 3 weeks): 22%

CC(=O)O[C@H]1C(=O)[C@@]2(C)[C@H]([C@H](OC(=O)c3ccccc3)[C@]3(O)C[C@H](OC(=O)[C@H](O)[C@@H](NC(=O)c4ccccc4)c4ccccc4)C(C)=C1C3(C)C)[C@]1(OC(C)=O)CO[C@@H]1C[C@@H]2O [taxol, paclitaxel]
Bcl-2 expression (Bcl-2 in B16.F1 cells; 24 hr): substantially decreased
Bcl-2 expression (Bcl-2 in B16.F1 cells; 72 hr): undetectable
number of caspase 3-positive cells per high power field in tumor sections [2]: 11.7±1.8 per hpf
increase in caspase-8 activity [3]: 2 fold
induction of caspase-9 [4]: No evidence for induction of caspase-9
increase in caspase 3/7 activity [5]: 2 fold
organ GSH levels (liver, spleen, kidney) [6]: marked decrease in organ GSH levels
cleavage of PARP into the 89 kD fragment (PARP in B16.F1 cells): cleavage of PARP into the 89 kD fragment was evident
viability of B16.F1 cells, % of control (B16.F1 melanoma cells; taxol 10 ng/ml, 24 hrs): 90%
viability of B16.F1 cells, % of control (B16.F1 melanoma cells; taxol 10 ng/ml, 72 hrs): 64%
viability of B16.F1 cells, % of control (B16.F1 melanoma cells; taxol 50 ng/ml, 24 hrs): 83%
viability of B16.F1 cells, % of control (B16.F1 melanoma cells; taxol 50 ng/ml, 72 hrs): 34%
Annexin V-positive (apoptotic) cells (B16.F1 cells): 32.8%
late apoptotic cells (positive for both Annexin V-FITC and PI), % of total (B16.F1 cells): 3.9%
inhibition of tumor growth vs saline control (B16.F1 melanoma tumor; [7]): ~61%
inhibition of tumor growth vs saline control (B16.F1 melanoma tumor; manuka honey 50% w/v, taxol 10 mg/kg, i.v. 2 times per week, listed as paclitaxel): 60% and 61%
survival of tumor-bearing mice (B16.F1 melanoma tumor; day 25, paclitaxel 5 mg/kg, MH 50% w/v): no significant difference in animal survival
percentage survival (B16.F1 melanoma tumor; day 25, paclitaxel 8 mg/kg, manuka honey 50% w/v): 36% and 36.4%
overall survival at end of observation period (B16.F1 melanoma tumor; day 25 post treatment, manuka honey 50% w/v, taxol 10 mg/kg): 20%
day after initiation of treatment at which inhibition/delay of tumor growth was first observed (B16.F1 melanoma tumor; [7]): 7 days
effect on tumor growth (FIG. 13) (B16.F1 melanoma tumor; paclitaxel 5 mg/kg, MH 50% w/v, i.v. twice per week): no effect of tumor growth
effect on tumor growth (FIGS. 17, 18) (B16.F1 melanoma tumor; paclitaxel 8 mg/kg, MH 50% w/v, i.v. twice per week): intermediate effect on reducing tumor growth
median survival (B16.F1 melanoma tumor; post treatment, manuka honey 50% w/v, taxol 10 mg/kg, i.v. 2 times per week): 20 days
tumor volume and survival vs saline (FIG. 9) (B16.F1 melanoma tumor; taxol 5 mg/kg, manuka honey 50% w/v, i.v. 2 times per week, 14 days post-treatment): ineffective at reducing tumor volume
